Source: patent US20130225597A1, “USE OF PHOSPHODIESTERASE INHIBITOR TO ENHANCE POST-SURGICAL ERECTION IN MEN UNDERGOING RADICAL PROSTATECTOMY” (University of Medicine and Dentistry of New Jersey, priority 2010, published 2013)
Where a name gives a salt, the structure may show the parent alone.

Key:
PC12 neuronal cell = test: Neuronal survival of hydrogen peroxide treated PC-12 cells; format: cell-based; conditions: 1 mM H2O2 for 1 hour, 24 hours incubation, viable cells counted
Description: Neuronal Survival Experiments. For survival experiments, PC12 neuronal cell were seeded in 6-well plates at a density of 1×10^5 per well in Dulbecco's modified Eagle's medium (DMEM) supplemented with 1% fetal bovine serum (FBS) and 100 ng/ml nerve growth factor (NGF), herein after (“Media”), for 3 days. Media was changed every 3 days. Cells were treated in the presence or absence of 1 mM hydrogen peroxide (H2O2) for 1 hour in the presence or absence of either sildenafil Citrate, vardenafil, or tardalafil at 0.1-fold physiologic dose (0.5 μM, 0.3 μM and 0.4 μM, respectively), physiologic dose (5 μM, 3 μM and 4 μM, respectively) and 10-fold physiologic dose (50 μM, 30 μM and 40 μM, respectively). Treated cells were incubated for 24 hours at 37° C. Viable cells were detached and counted using an automated counter.

[1] = system: post-radical prostatectomy erection dysfunction; test: Clinical study: sildenafil citrate at the operative site in robot-assisted radical prostatectomy, potency recovery; format: in vivo, humans; conditions: 147 men
Description: Clinical Studies. For effective study in humans, 147 men that underwent robot-assisted radical prostatectomy were treated with sildenafil citrate at the operative site. Potency was reported in 24.2%, 84.2% and 93.3% of the subjects at three, six, and twelve months post-operative, respectively.

[2] = system: spinal motor and non-motor neurons; conditions: cited from earlier work

SMILES: COc1ccc(C2CNC(=O)C2)cc1OC1CCCC1 (centres unmarked) [rolipram]
- protection against H2O2-induced cell death (neuronal viability) (PC12 neuronal cell): significant protection

SMILES: CCCc1nn(C)c2c(=O)[nH]c(-c3cc(S(=O)(=O)N4CCN(C)CC4)ccc3OCC)nc12 [sildenafil citrate]
- Potency reported, % of subjects ([1]; six months post-operative): 84.2%
- Potency reported, % of subjects ([1]; three months post-operative): 24.2%
- Potency reported, % of subjects ([1]; twelve months post-operative): 93.3%

SMILES: CCCOc1ccccc1-c1nc2nn[nH]c2c(=O)[nH]1 [zaprinas]
- protection against acute Reactive Oxygen Species-induced neurotoxicity [2]: protect
